Measurements: the supplement of paper PMC11451515

Key:
Details in all cases: 48 h
SEM cells [1] = experiment: AUC of viability dose-response curve (% viability x log10 dose units); higher = less sensitive
Outline: (§1)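 Leukemia cells adapted to each medium were seeded at 500 or 1000 cells/well in 1536-well plates and dosed with library compounds in DMSO at 11 threefold doses from 47 μM to 0.79 nM for 48 h at 37°C. CellTiter-Glo One luminescence was normalised per plate to DMSO and cell-free wells, then fitted with a four-parameter log-logistic model over log10 doses. Area under the curve was taken from this fit by the trapezoidal rule, with curves above full viability scaled and curves failing quality control removed.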

NOMO1 [2] = experiment: as above
Outline: as §1

P12-Ichikawa [3] = experiment: as above
Outline: as §1

SEM cells [4] = experiment: cell viability relative to DMSO control; higher = less cytotoxic
Outline: (§2)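 Library compounds in DMSO were pin-dosed in an 11-point threefold series (47 μM to 0.79 nM) onto leukemia cells in 1536-well plates (5 μl). Plates held 500 cells/well of NOMO1 or SEM or 1000 cells/well of P12-Ichikawa, each adapted for at least four passages in each medium. Luminescence was read with CellTiter-Glo One after 48 h at 37°C. Viability means the per-plate percentage relative to DMSO wells, using cell-free wells as background.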

NOMO1 [5] = experiment: as above
Outline: as §2

P12-Ichikawa [6] = experiment: as above
Outline: as §2

[7] = RPMI 5 mM glucose + 10% dialyzed FBS
[8] = HPLM + 10% dialyzed FBS, 0.000781 µM
[9] = HPLM + 10% dialyzed FBS, 0.00234 µM
[10] = HPLM + 10% dialyzed FBS, 0.00702 µM
[11] = HPLM + 10% dialyzed FBS, 0.0211 µM
[12] = HPLM + 10% dialyzed FBS, 0.0632 µM
[13] = HPLM + 10% dialyzed FBS, 0.19 µM
[14] = HPLM + 10% dialyzed FBS, 0.569 µM
[15] = HPLM + 10% dialyzed FBS, 1.71 µM
[16] = HPLM + 10% dialyzed FBS, 5.12 µM
[17] = HPLM + 10% dialyzed FBS, 15.4 µM
[18] = HPLM + 10% dialyzed FBS, 46.1 µM
[19] = RPMI 5 mM glucose + 10% FBS, 0.000781 µM
[20] = RPMI 5 mM glucose + 10% FBS, 0.00234 µM
[21] = RPMI 5 mM glucose + 10% FBS, 0.00702 µM
[22] = RPMI 5 mM glucose + 10% FBS, 0.0211 µM
[23] = RPMI 5 mM glucose + 10% FBS, 0.0632 µM
[24] = RPMI 5 mM glucose + 10% FBS, 0.19 µM
[25] = RPMI 5 mM glucose + 10% FBS, 0.569 µM
[26] = RPMI 5 mM glucose + 10% FBS, 1.71 µM
[27] = RPMI 5 mM glucose + 10% FBS, 5.12 µM
[28] = RPMI 5 mM glucose + 10% FBS, 15.4 µM
[29] = RPMI 5 mM glucose + 10% FBS, 46.1 µM
[30] = RPMI 5 mM glucose + 10% dialyzed FBS, 0.000781 µM
[31] = RPMI 5 mM glucose + 10% dialyzed FBS, 0.00234 µM
[32] = RPMI 5 mM glucose + 10% dialyzed FBS, 0.00702 µM
[33] = RPMI 5 mM glucose + 10% dialyzed FBS, 0.0211 µM
[34] = RPMI 5 mM glucose + 10% dialyzed FBS, 0.0632 µM
[35] = RPMI 5 mM glucose + 10% dialyzed FBS, 0.19 µM
[36] = RPMI 5 mM glucose + 10% dialyzed FBS, 0.569 µM
[37] = RPMI 5 mM glucose + 10% dialyzed FBS, 1.71 µM
[38] = RPMI 5 mM glucose + 10% dialyzed FBS, 5.12 µM
[39] = RPMI 5 mM glucose + 10% dialyzed FBS, 15.4 µM
[40] = RPMI 5 mM glucose + 10% dialyzed FBS, 46.1 µM

For `Oc1ccc2c3c1O[C@H]1c4[nH]c5c(c4C[C@@]4(O)[C@@H](C2)N(CC2CC2)CC[C@]314)C[C@@]1(O)[C@H]2Cc3ccc(O)c4c3[C@@]1(CCN2CC1CC1)[C@H]5O4`, the “AUC of viability dose-response curve” value (SEM cells [1]; HPLM + 10% dialyzed FBS) was 422, the “AUC of viability dose-response curve” value (SEM cells [1]; RPMI 5 mM glucose + 10% FBS) was 429 and the “AUC of viability dose-response curve” value (SEM cells [1]; [7]) was 454. For the same compound, the “AUC of viability dose-response curve” value (NOMO1 [2]; HPLM + 10% dialyzed FBS) was 448, the “AUC of viability dose-response curve” value (NOMO1 [2]; RPMI 5 mM glucose + 10% FBS) was 443 and the “AUC of viability dose-response curve” value (NOMO1 [2]; [7]) was 472. The “AUC of viability dose-response curve” value (P12-Ichikawa [3]; HPLM + 10% dialyzed FBS) was 463, the “AUC of viability dose-response curve” value (P12-Ichikawa [3]; RPMI 5 mM glucose + 10% FBS) was 440 and the “AUC of viability dose-response curve” value (P12-Ichikawa [3]; [7]) was 428. The cell viability (SEM cells [4]; [8]) was 70.3%, the cell viability (SEM cells [4]; [9]) was 88.3% and the cell viability (SEM cells [4]; [10]) was 101%. The cell viability (SEM cells [4]; [11]) was 92.6%, the cell viability (SEM cells [4]; [12]) was 108% and the cell viability (SEM cells [4]; [13]) was 99.4%. The cell viability (SEM cells [4]; [14]) was 98.4%, the cell viability (SEM cells [4]; [15]) was 107% and the cell viability (SEM cells [4]; [16]) was 113%. The cell viability (SEM cells [4]; [17]) was 113%, the cell viability (SEM cells [4]; [18]) was 119% and the cell viability (SEM cells [4]; [19]) was 86.9%. The cell viability (SEM cells [4]; [20]) was 80.2%, the cell viability (SEM cells [4]; [21]) was 102% and the cell viability (SEM cells [4]; [22]) was 85.7%. It also gave a cell viability (SEM cells [4]; [23]) of 123%, a cell viability (SEM cells [4]; [24]) of 119% and a cell viability (SEM cells [4]; [25]) of 123%. It also gave a cell viability (SEM cells [4]; [26]) of 128%, a cell viability (SEM cells [4]; [27]) of 131% and a cell viability (SEM cells [4]; [28]) of 119%. The cell viability (SEM cells [4]; [29]) was 123%, the cell viability (SEM cells [4]; [30]) was 89.5% and the cell viability (SEM cells [4]; [31]) was 92.6%. The cell viability (SEM cells [4]; [32]) was 104%, the cell viability (SEM cells [4]; [33]) was 80.3% and the cell viability (SEM cells [4]; [34]) was 107%. For the same compound, the cell viability (SEM cells [4]; [35]) was 106%, the cell viability (SEM cells [4]; [36]) was 111% and the cell viability (SEM cells [4]; [37]) was 107%. It also gave a cell viability (SEM cells [4]; [38]) of 98.4%, a cell viability (SEM cells [4]; [39]) of 99.6% and a cell viability (SEM cells [4]; [40]) of 113%. It also gave a cell viability (NOMO1 [5]; [8]) of 92.7%, a cell viability (NOMO1 [5]; [9]) of 104% and a cell viability (NOMO1 [5]; [10]) of 114%. The cell viability (NOMO1 [5]; [11]) was 116%, the cell viability (NOMO1 [5]; [12]) was 116% and the cell viability (NOMO1 [5]; [13]) was 136%. It also gave a cell viability (NOMO1 [5]; [14]) of 108%, a cell viability (NOMO1 [5]; [15]) of 115% and a cell viability (NOMO1 [5]; [16]) of 129%. It also gave a cell viability (NOMO1 [5]; [17]) of 132%, a cell viability (NOMO1 [5]; [18]) of 131% and a cell viability (NOMO1 [5]; [19]) of 99.8%. For the same compound, the cell viability (NOMO1 [5]; [20]) was 122%, the cell viability (NOMO1 [5]; [21]) was 110% and the cell viability (NOMO1 [5]; [22]) was 116%. For the same compound, the cell viability (NOMO1 [5]; [23]) was 128%, the cell viability (NOMO1 [5]; [24]) was 118% and the cell viability (NOMO1 [5]; [25]) was 125%. The cell viability (NOMO1 [5]; [26]) was 120%, the cell viability (NOMO1 [5]; [27]) was 116% and the cell viability (NOMO1 [5]; [28]) was 123%. For the same compound, the cell viability (NOMO1 [5]; [29]) was 134%, the cell viability (NOMO1 [5]; [30]) was 98% and the cell viability (NOMO1 [5]; [31]) was 127%. For the same compound, the cell viability (NOMO1 [5]; [32]) was 112%, the cell viability (NOMO1 [5]; [33]) was 122% and the cell viability (NOMO1 [5]; [34]) was 123%. For the same compound, the cell viability (NOMO1 [5]; [35]) was 126%, the cell viability (NOMO1 [5]; [36]) was 122% and the cell viability (NOMO1 [5]; [37]) was 110%. For the same compound, the cell viability (NOMO1 [5]; [38]) was 108%, the cell viability (NOMO1 [5]; [39]) was 124% and the cell viability (NOMO1 [5]; [40]) was 119%. For the same compound, the cell viability (P12-Ichikawa [6]; [8]) was 100%, the cell viability (P12-Ichikawa [6]; [9]) was 111% and the cell viability (P12-Ichikawa [6]; [10]) was 113%. For the same compound, the cell viability (P12-Ichikawa [6]; [11]) was 117%, the cell viability (P12-Ichikawa [6]; [12]) was 120% and the cell viability (P12-Ichikawa [6]; [13]) was 118%. It also gave a cell viability (P12-Ichikawa [6]; [14]) of 130%, a cell viability (P12-Ichikawa [6]; [15]) of 121% and a cell viability (P12-Ichikawa [6]; [16]) of 120%. The cell viability (P12-Ichikawa [6]; [17]) was 119%, the cell viability (P12-Ichikawa [6]; [18]) was 121% and the cell viability (P12-Ichikawa [6]; [19]) was 114%. For the same compound, the cell viability (P12-Ichikawa [6]; [20]) was 123%, the cell viability (P12-Ichikawa [6]; [21]) was 118% and the cell viability (P12-Ichikawa [6]; [22]) was 122%. It also gave a cell viability (P12-Ichikawa [6]; [23]) of 122%, a cell viability (P12-Ichikawa [6]; [24]) of 124% and a cell viability (P12-Ichikawa [6]; [25]) of 115%. The cell viability (P12-Ichikawa [6]; [26]) was 126%, the cell viability (P12-Ichikawa [6]; [27]) was 127% and the cell viability (P12-Ichikawa [6]; [28]) was 137%. It also gave a cell viability (P12-Ichikawa [6]; [29]) of 132%, a cell viability (P12-Ichikawa [6]; [30]) of 97.8% and a cell viability (P12-Ichikawa [6]; [31]) of 110%. The cell viability (P12-Ichikawa [6]; [32]) was 113%, the cell viability (P12-Ichikawa [6]; [33]) was 112% and the cell viability (P12-Ichikawa [6]; [34]) was 120%. It also gave a cell viability (P12-Ichikawa [6]; [35]) of 123%, a cell viability (P12-Ichikawa [6]; [36]) of 117% and a cell viability (P12-Ichikawa [6]; [37]) of 122%. It also gave a cell viability (P12-Ichikawa [6]; [38]) of 119%, a cell viability (P12-Ichikawa [6]; [39]) of 129% and a cell viability (P12-Ichikawa [6]; [40]) of 134%.
